In PubChem BioAssay AID588588 (Sanford-Burnham Center for Chemical Genomics, 2011):
Values joined by “and” are separate entries in the source; they are usually repeats but may differ in a detail not shown here. Equal values may be shown once. Active and inactive are the calls of the source. No rule for the calls is given here.

Molecular target: glucose-6-phosphate dehydrogenase-6-phosphogluconolactonase (Plasmodium falciparum 3D7)
Assay: inhibition of P. falciparum G6PD activity – biochemical, end-point NADPH detection, orthogonal assay, SAR follow-up (AID 588588)
Settings: recombinant PfG6PD-6PGL, direct NADPH end-point detection

Row | Structure (SMILES) | IC50
1 | O=C(Nc1nnc(S(=O)(=O)N2CCCCCC2)s1)C1CCCCC1 | > 80 µM (inactive)
2 | CCN1CCCC1CNC(=O)c1ccc2c(c1)NC(=O)CS2 (stereo not drawn) | > 80 µM (inactive)
3 | CCN1CCCC1CNC(=O)c1ccc2c(c1)N(Cc1ccccc1Cl)C(=O)c1ccccc1S2 (stereo not drawn) | > 80 µM (inactive)
4 | Cc1ccc(CN2C(=O)c3ccccc3Sc3ccc(C(=O)NCCN(C)C)cc32)cc1 | > 80 µM (inactive)
5 | CCN(CCNC(=O)c1ccc2c(c1)NC(=O)c1ccccc1S2)c1ccccc1 | > 80 µM (inactive)
6 | CCN1CCC[C@H]1CNC(=O)c1ccc2c(c1)NC(=O)/C(=C/c1ccccc1F)S2 | > 80 µM (inactive)
7 | CCN(CCNC(=O)c1ccc2c(c1)N(Cc1cc(C)ccc1C)C(=O)c1ccccc1S2)c1ccccc1 | > 80 µM (inactive)
8 | O=C(Nc1nnc(S(=O)(=O)N2CCCCCC2)s1)c1ccccc1 | > 80 µM (inactive)
9 | COc1ccc(/C=C2/Sc3ccc(C(=O)NCCN4CCCC4)cc3NC2=O)cc1 | > 80 µM (inactive)
10 | O=C1Nc2cc(C(=O)NCCN3CCCC3)ccc2S/C1=C/c1ccccc1F | > 80 µM (inactive)
11 | CC1Cc2ccccc2N1S(=O)(=O)c1nnc(NC(=O)c2cccc(F)c2)s1 (stereo not drawn) | > 80 µM (inactive)
12 | Cc1cccc(N2CCN(CCNC(=O)c3ccc4c(c3)NC(=O)c3ccccc3S4)CC2)c1C | > 80 µM (inactive)
13 | CCN(CC)CCNC(=O)c1ccc2c(c1)NC(=O)/C(=C\c1ccc(OC)cc1)S2 | > 80 µM (inactive)
14 | COc1cccc(/C=C2/Sc3ccc(C(=O)NCCN4CCCCCC4)cc3NC2=O)c1 | > 80 µM (inactive)
15 | Cc1cccc(C(=O)Nc2nnc(S(=O)(=O)N3CCCc4ccccc43)s2)c1 | > 80 µM (inactive)
16 | O=C(NCCN1CCCC1)c1ccc2c(c1)NC(=O)c1ccccc1O2 | > 80 µM (inactive)
17 | CCN1CCCC1CNC(=O)c1ccc2c(c1)NC(=O)CO2 (stereo not drawn) | > 80 µM (inactive)
18 | CCN1CCCC1CNC(=O)c1ccc2c(c1)NC(=O)/C(=C\c1ccc(C)cc1)S2 (stereo not drawn) | > 80 µM (inactive)
19 | O=C1Nc2cc(C(=O)NCc3ccccc3)ccc2S/C1=C\c1ccccc1F | > 80 µM (inactive)
20 | CCN1CCCC1CNC(=O)c1ccc2c(c1)N(Cc1cccc(F)c1)C(=O)c1ccccc1S2 (stereo not drawn) | > 80 µM (inactive)
21 | CCN1CCCC1CNC(=O)c1ccc2c(c1)NC(=O)/C(=C/c1ccccc1)S2 (stereo not drawn) | > 80 µM (inactive)
22 | COc1ccc(C(=O)Nc2nnc(S(=O)(=O)N3CCCCCC3)s2)cc1 | > 80 µM (inactive)
23 | Cc1ccc(C(=O)Nc2nnc(S(=O)(=O)N3c4ccccc4CC3C)s2)cc1 (stereo not drawn) | > 80 µM (inactive)
24 | COc1cccc(/C=C2/Sc3ccc(C(=O)NCCN4CCCC4)cc3NC2=O)c1 | > 80 µM (inactive)
25 | CN(C)CCNC(=O)c1ccc2c(c1)NC(=O)c1ccccc1O2 | > 80 µM (inactive)
26 | CCN1CCCC1CNC(=O)c1ccc2c(c1)NC(=O)c1ccccc1S2 (stereo not drawn) | 6.64 µM and 9.89 µM
27 | CCN(CC)CCNC(=O)c1ccc2c(c1)NC(=O)CO2 | > 80 µM (inactive)
28 | CCN(CC)CCNC(=O)c1ccc2c(c1)NC(=O)c1ccccc1O2 | > 80 µM (inactive)
